# PubChem BioAssay (NCI)
#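 Tested at 5 concentrations; 48 h exposure; 96-well plates; endpoints linearly interpolated, else capped at highest concentration. The concentration for 50% growth inhibition is given as GI50. The concentration for full growth arrest is given as TGI.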
# Legend:
# Test in all cases: NCI tumour cell line growth inhibition, 48 h
# BT-549 breast = tested on: BT-549 breast
# LOX IMVI melanoma = tested on: LOX IMVI melanoma
# NCI-H460 lung = tested on: NCI-H460 lung
# OVCAR-5 ovarian = tested on: OVCAR-5 ovarian
# OVCAR-8 ovarian = tested on: OVCAR-8 ovarian
# SF-268 CNS = tested on: SF-268 CNS
# SF-295 CNS = tested on: SF-295 CNS
# SK-OV-3 ovarian = tested on: SK-OV-3 ovarian
# SN12C renal = tested on: SN12C renal
# T-47D breast = tested on: T-47D breast
Compound,TGI (BT-549 breast) [µM],TGI (LOX IMVI melanoma) [µM],TGI (NCI-H460 lung) [µM],TGI (OVCAR-5 ovarian) [µM],TGI (OVCAR-8 ovarian) [µM],TGI (SF-268 CNS) [µM],TGI (SF-295 CNS) [µM],TGI (SK-OV-3 ovarian) [µM],TGI (SN12C renal) [µM],TGI (T-47D breast) [µM],GI50 (SN12C renal) [µM]
COc1cc(/C=C\c2ccc(SC)cc2)cc(OC)c1OC,> 100,45.2,> 49.3,> 18.5,> 41,56.1,< 0.0204,1.75,> 100,> 100,
CC(C)(C)[Si](C)(C)OCC1OC(n2ccc(=O)[nH]c2=O)C(O[Si](C)(C)C(C)(C)C)/C1=N/O (stereo not given),> 40.5,10.5,12.5,18.6,13.9,,> 40.7,26,16.3,24.2,
CCN(CC)P1(=S)Oc2ccc3ccccc3c2-c2c(ccc3ccccc23)O1,> 100,> 100,> 100,> 100,> 100,,> 100,> 100,> 100,> 100,
CCCCN(CCCC)CC(=O)c1ccc2cc(Cl)c3ccccc3c2c1,41.8,> 100,52.1,> 100,51.8,42.1,> 100,> 100,> 100,76.6,
COC(=O)c1c(C)nc(C)c(N=O)c1-c1ccccc1C(F)(F)F,33.6,30.8,> 100,51.4,35.6,30.8,> 100,> 100,38.6,39.5,
Brc1ccc(-c2ccc(-c3ccc(Br)s3)s2)s1,> 100,> 100,> 100,> 100,> 100,> 100,> 100,> 100,> 100,> 100,
COc1ccccc1NC(=S)N/N=C(/c1ccccc1)c1ccccn1,23,15.7,13.3,13.2,10.5,20.4,7.17,13.8,16.7,27.2,
CC1OC(OC2C(CO)OC(O[C@H]3CC[C@@]4(C)C(=CC[C@H]5[C@@H]6C[C@@H]7O[C@](O)(CC[C@@H](C)COC8OC(CO)C(O)C(O)C8O)[C@@H](C)[C@@H]7[C@@]6(C)CC[C@@H]54)C3)C(OC3OC(C)C(O)C(O)C3O)C2O)C(O)C(O)C1O (stereo not given in full),11.1,3.17,4.57,6.76,4.09,8.33,11.8,7.34,6.95,17.9,2.71
O=C(/C=C1\N=C(c2ccccc2)N(c2ccc3c(c2)Sc2cc(N4C(=O)/C(=C/C(=O)/C=C/c5ccccc5)N=C4c4ccccc4)ccc2N3)C1=O)/C=C/c1ccccc1,52.6,84.9,> 100,48.8,> 100,> 100,57,33.8,> 100,> 100,
Cc1cc2nc3c(C#N)c(-c4ccccc4)/c(=C\Nc4cccc(C(F)(F)F)c4)c(=O)n3c2cc1C,> 100,> 100,> 100,> 100,> 100,> 100,> 100,> 100,> 100,> 100,
Cc1nn(-c2ccccc2)c(C)c1/C=N/NC(=O)c1sc(=S)n(-c2ccc(Cl)cc2)c1N,> 100,8.73,95.1,> 100,> 100,> 100,5.37,> 100,> 100,> 100,
COc1ccc(N=NN2CCCC2)cc1,60.6,37.2,> 100,> 100,,> 100,> 100,> 100,55,49.2,
CC(C)(C)c1cc(C2COC(=O)COCCOCC(=O)OCCOCCO2)cc(C(C)(C)C)c1O (stereo not given),> 77.7,> 31.6,> 100,54.8,> 100,> 90.7,53.7,> 78.4,44.6,> 31.6,
Cc1[nH]n(C(=O)c2ccccc2O)c(=O)c1/C=C1\C(=O)C=Cc2ccccc21,73,8.79,9.94,> 64.9,28.5,31,26.4,22.1,13.6,> 100,
Cc1ccc(Nc2ncnc3sc(SCc4ccccc4)nc23)cc1,> 100,> 100,> 100,> 100,> 100,> 100,> 100,> 100,> 100,> 100,
C=C1C(=O)OC2C(C)C3C=CC(=O)[C@@]3(C)C(OC(=O)/C(C)=C/C)C1[C@@H]2OC(C)=O (stereo not given in full),0.682,0.521,1.33,3.32,0.628,3.22,2.81,3.52,1.24,2.13,
COc1cc(O)c(C(=O)/C=C/c2ccc(O)cc2)cc1Oc1ccc(C(=O)/C=C/c2ccc(O)cc2)c(O)c1,9.19,10.7,12.1,5.6,7.97,14.2,10.4,9.15,5.99,8.86,
COC(=O)CP1(=O)OC2C(C3CCC2(C)C3(C)C)N1c1cc(C(F)(F)F)cc(C(F)(F)F)c1 (stereo not given),71.8,49,86.2,> 100,> 100,82.1,48.2,80.5,,71,
Cc1ccc(S(=O)/C=C(\NC(=O)OCc2ccccc2)C(F)(F)F)cc1 (stereo not given),> 100,> 100,> 100,> 100,> 100,,> 100,> 100,> 100,> 100,
C#CCNC(Cc1ccccc1)C(=O)O (stereo not given),> 100,> 100,> 100,> 100,> 100,> 100,> 100,> 100,,> 100,
